# Test results as given in patent US20260001910A1, “PEPTIDES AND USES THEREOF” (PreveCeutical Medical Inc., priority 2021, published 2026).
# Experiments:
# recombinant MMP-2 = molecular target: T1, recombinant MMP-2 (Homo sapiens, UniProt P08253); experiment: MMP-2 Inhibitor Screening Assay Kit (colorimetric); type: biochemical; conditions: lower % = higher inhibitory activity
# T1 construct: purchased ab139446
# Description: MMP-2 is an important target for inhibitor screening due to its involvement in cancer growth, angiogenesis, and metastasis. The MMP-2 screening assay was carried out with a commercially available MMP-2 Inhibitor Screening Assay Kit (Colorimetric, Catalog: ab139446) based on the manufacturers protocol. This assay is based on quantification of recombinant MMP-2 activity using a colorimetric assay (MMP-2 degrades a chromogenic substrate). The assay provides NNGH (N-isobutyl-N-(4-methoxyphenylsulfonyl) glycyl hydroxamic acid), a small molecule inhibitor, as a positive control (NNGH). […] Each determination was run in duplicate.
# Briefly, MMP Substrate and MMP Inhibitor were warmed to room temperature to thaw DMSO. MMP Inhibitor (NNGH), MMP-2 substrate and MMP-2 enzyme were diluted with assay buffer to required concentration. 20 μL of MMP-2 enzyme and MMP-2 inhibitor (peptides, Chlorotoxin and NNGH) was added, then 50 μL of assay buffer was added and the reaction mixture incubated at 37° C. for 1 h. After incubation, 10 μL of MMP Substrate was added to start reaction. The reactions were continuously read at 412 nm in a microplate reader. Data was recorded at 1 min. time intervals for 10 to 20 min. The data as was plotted as optical density (OD) versus time for each sample. The reaction velocity (V) was obtained in OD/min: determine the slope of a line fit to the linear portion of the data plot using an appropriate routine. Then using the equation above the inhibitor % activity remaining was calculated. The control was without inhibitor.
# [1] = tested on: GBM cells (U251, U87 and 081024 cells); experiment: Binding/internalization of biotinylated peptide, confocal fluorescence microscopy; type: cell-based, human; conditions: 0.5 mM labelled peptide
# Description: FIG. 1 provides fluorescence staining of biotinylated peptide SEQ ID NO. 1 after 6 hours cell exposure (U251 cells and U87 cells) or 5 min cell exposure (081024 oncospheres). Upper right-hand panel: U251 cells, middle right-hand panel, U87 cells, lower right-hand panel, 081024 oncospheres. No peptide negative control (left side of each panel). […] Nuclei appear blue due to DAPI staining. Images were captured using a 100X objective and a Olympus FV3000 confocal microscope
# To document binding and/or internalization of the peptides to the cells, biotinylated derivatives of the peptides were synthesised to allow detection by Cy3-conjugated avidin staining using confocal fluorescence microscopy.
# U87 and U251 cells were seeded on 8-chamber polystyrene vessel tissue culture-treated glass slides (Falcon). After 24h, cells were incubated with biotinylated peptide (0.5 mM) containing serum free media for 5 min and 6 h. […] Cells were then rinsed and mounted on microscopic slides with DAPI-containing mounting medium for confocal fluorescence imaging analysis.
# The ability of SEQ ID NO. 41 to bind and/or enter GBM cells was evaluated. In a first set of experiments, adherent GBM cells and non-adherent GBM cells were exposed to 0.5 mM labelled peptide for 6 h, processed and analysed by confocal immunofluorescence microscopy. […]
# U251 cells = conditions: U251, 1 μM, 24h
# Description: (§1) This assay, described in more detail below, is an in vitro surrogate for measurement of the in vivo invasion by tumour cells of their environment.
# (§2) The cell invasion assay employs a simplified Boyden chamber-like design that consists of two chambers separated by a filter (an 8 μm polycarbonate (PC) membrane) coated with basement membrane or different extracellular matrix components. The cell suspension is placed in the top chamber and incubated in the presence of test media containing specific chemo-attractants in the bottom chamber. Cells migrate from the top chamber to the bottom of the filter by degrading the coating over the filter pores. Detection of cell invasion is quantified using Calcein AM. Cell dissociation/Calcein AM solution is placed in the bottom chamber to dissociate the migrating cells from the filter. Calcein AM is internalized by the cells, and intracellular-esterases cleave the aceto-methylester (AM) moiety.
# (§3) The filter was coated with PathClear® growth factor reduced BME.
# (§4) Cell invasion was determined using CultureCoat® 96 Well Medium BME Cell Invasion assay. Briefly, the cells were pre-starved 24h before harvest. Then seeding 25,000 per well of cell in the upper chamber with serum free medium together different concentration of peptide. […] After 24h incubation, the invading cells were measured by Calcein AM and calculated based on standard curve.
# U87 cells = conditions: U87, 1 μM, 24h
# Description: as §1, §2, §3, §4
# 081024 oncospheres = conditions: 081024, 1 μM, 24h
# T1 sequence (P08253 110-446 limits assumed): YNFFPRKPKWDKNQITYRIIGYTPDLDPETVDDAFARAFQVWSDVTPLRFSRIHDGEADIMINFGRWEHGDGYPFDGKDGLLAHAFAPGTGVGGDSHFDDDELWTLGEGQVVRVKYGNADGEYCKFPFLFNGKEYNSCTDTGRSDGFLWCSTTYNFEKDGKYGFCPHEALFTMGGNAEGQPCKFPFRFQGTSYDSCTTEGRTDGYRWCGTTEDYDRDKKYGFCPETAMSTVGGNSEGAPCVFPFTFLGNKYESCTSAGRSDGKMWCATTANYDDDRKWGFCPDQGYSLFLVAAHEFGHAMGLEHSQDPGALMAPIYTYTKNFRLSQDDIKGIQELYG
compound,measurement,setting,value
"COc1ccc(S(=O)(=O)N(CC(=O)NO)CC(C)C)cc1 [NNGH, N-isobutyl-N-(4-methoxyphenylsulfonyl) glycyl hydroxamic acid, reference compound]",% inhibition (MMP-2 inhibitor screening),recombinant MMP-2; 1.3 μM,2.29%
Biotin-tyr-gly-gly-phe-leu-arg-arg [SEQ ID NO. 41],"binding/entry into GBM cells, Cy3 staining","[1]; 5 minutes exposure, U251, U87 and 081024 cells",already internalised
same,"binding/entry into GBM cells, Cy3 staining",[1]; 6 h exposure,bright intracellular fluorescence
Chlorotoxin,Invasion Inhibition Index (%),U251 cells,28.50%
same,Invasion Inhibition Index (%),U87 cells,39.5%
same,% inhibition (MMP-2 inhibitor screening),recombinant MMP-2; 1 μM,67.94%
same,Invasion Inhibition Index (%),081024 oncospheres,45.0%
